Values of other authors as cited in patent US9597409B2, “Methods of treating cancer” (Abraxis BioScience, LLC, priority 2010, dated 2017).

Tested on: patients with locally advanced or metastatic NSCLC
Details: single agents commonly used to treat NSCLC

CCC1=C[C@@H]2CN(C1)Cc1c([nH]c3ccccc13)[C@@](C(=O)OC)(c1cc3c(cc1OC)N(C)[C@H]1[C@@](O)(C(=O)OC)[C@H](OC(C)=O)[C@]4(CC)C=CCN5CC[C@]31[C@@H]54)C2 [vinorelbine]
response rate (RR): 29.4%
